From PubChem BioAssay (NCI)
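Test compounds were applied to cells in 96-well plates for 48 hours at 5 doses. TGI: concentration producing complete growth inhibition.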

How the values were obtained:
Assay in all cases: NCI tumour cell line growth inhibition, 48 h
MALME-3M melanoma = test system: MALME-3M melanoma
RXF 393 renal = test system: RXF 393 renal
HOP-18 NSCLC = test system: HOP-18 NSCLC
DMS 114 small cell lung = test system: DMS 114 small cell lung
LXFL 529 NSCLC = test system: LXFL 529 NSCLC
ACHN renal = test system: ACHN renal
SN12C renal = test system: SN12C renal
CCRF-CEM leukemia = test system: CCRF-CEM leukemia
RPMI-8226 leukemia = test system: RPMI-8226 leukemia
SNB-78 CNS = test system: SNB-78 CNS
UACC-257 melanoma = test system: UACC-257 melanoma
SF-539 CNS = test system: SF-539 CNS
SNB-19 CNS = test system: SNB-19 CNS
DLD-1 colon = test system: DLD-1 colon
SNB-75 CNS = test system: SNB-75 CNS
SF-268 CNS = test system: SF-268 CNS

Measured: TGI

NC(N)=N/N=C/c1c[nH]c2ccccc12
> 100 µM: all assays above
